# Biological target: T1, IDO1 (Homo sapiens, UniProt P14902)
# Assay: IDO1 Human Whole Blood Assay
# Type: cell-based
# Design: Human whole blood was drawn in sodium heparin coated tubes from healthy internal donors; from tissue; host or cells: human whole blood from healthy donors, stimulated with LPS and IFNγ
# Conditions: human whole blood stimulated with LPS and IFNγ 100 ng/mL, 18 h, kynurenine by LC/MS/MS
# Experimental: IDO1 Human Whole Blood Assay
# Compounds to be tested were serially diluted in ten 3-fold steps in DMSO starting from 10 mM. 3 μL of compound dilutions or DMSO alone were then dispensed from the dilution plate into a polypropylene 96-well assay plate containing 97 μL of RPMI medium using an Echo 555 acoustic liquid handler (Labcyte). LPS and IFNγ were prepared in RPMI medium to a 10× of final conc. (1000 ng/mL), final concentration is 100 ng/mL.
# Human whole blood was drawn in sodium heparin coated tubes from healthy internal donors. Two hundred forty μL of blood was transferred to each of the wells of a v-bottom 96 well plate. Thirty μL of compound was transferred from intermediate dilution plate, and incubated for 15 min. Thirty μL from stimulants was then transferred to blood and mixed thoroughly. Plate was covered with breathable membrane and incubated at 37° C. for overnight (18 h).
# On day 2 isotope labeled standard of kynurenine and tryptophan was made in water at 10× concentration and 30 μL was added to the blood at 3 μM final concentration. […] Twenty μL of supernatant was carefully transferred to a 384 well plate containing 40 μL of 0.1% formic acid in water and analyzed by LC/MS/MS.
# LC/MS/MS analyses were performed using Thermo Fisher's LX4-TSQ Quantum Ultra system. […] Compounds were titrated and IC50's were calculated by 4 parameter sigmoidal curve fitting formula.
# T1 sequence (P14902 whole entry): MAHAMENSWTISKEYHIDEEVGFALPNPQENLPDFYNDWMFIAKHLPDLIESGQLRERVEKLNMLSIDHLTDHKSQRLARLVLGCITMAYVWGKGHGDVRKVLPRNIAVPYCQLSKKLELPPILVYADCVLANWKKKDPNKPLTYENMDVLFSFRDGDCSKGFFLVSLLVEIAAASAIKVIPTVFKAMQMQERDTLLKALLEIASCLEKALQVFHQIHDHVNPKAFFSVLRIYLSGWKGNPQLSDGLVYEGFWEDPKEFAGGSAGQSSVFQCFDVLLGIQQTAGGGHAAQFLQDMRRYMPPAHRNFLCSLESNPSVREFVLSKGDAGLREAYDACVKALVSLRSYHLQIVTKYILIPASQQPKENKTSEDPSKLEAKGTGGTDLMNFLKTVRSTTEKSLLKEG
row,IC50 [nM],Structure (SMILES)
1,306,"O=C(Nc1ccc(Cl)cc1)C1CCC2CC1CCC2c1ccnc2ccc(F)cc12 (single isomer, unassigned) [Example 1, N-(4-chlorophenyl)-6-(6-fluoroquinolin-4-yl)bicyclo[3.3.1]nonane-2-carboxamide]"

# Biological target: T1, IDO1
# Assay: IDO1 Cellular Assay in Hela Cells Stimulated with IFNγ
# Type: cell-based
# Conditions: 100 ng/mL IFNγ, 300 uM L-tryptophan, about 48 hours, fluorescence readout
# Experimental: IDO1 Cellular Assay in Hela Cells Stimulated with IFNγ
# Hela cells were cultured in complete Hela culture medium (90% EMEM, 10% heat-inactivated fetal bovine serum) and expanded to about 1×10^9 cells. The cells were then collected and frozen down at 1×10^7 cells/vial in 1 mL frozen medium (90% complete Hela culture medium, 10% DMSO)
# Compounds to be tested were serially diluted in ten 3-fold steps in DMSO starting from 10 mM DMSO stocks in Echo low volume plate(s). Compound dilutions or DMSO alone were then dispensed from the dilution plate(s) into Greiner black 384-well assay plate(s) (catalog #781086, 50 nL/well) using an Echo 550 acoustic liquid handler (Labcyte).
# Frozen Hela cells were thawed and transferred into Hela assay medium (99% complete Hela culture medium, 1% Pen/Strep) with 20 mL medium/vial of cells. The cells were spun down at 250 g in a table top centrifuge for 5 min and suspended in same volume of Hela assay medium. The cells were then counted and adjusted to a density of 2×10^5 cells/ml in Hela assay medium. Sterile L-tryptophan were added to the cells with final concentration of 300 uM L-tryptophan. A small aliquot (2 mL/plate) of Hela cells were set aside and were not treated with IFNγ, to serve as the Max-E control.
# Hela cells with and without IFNγ were dispensed to the respective wells of 384-well assay plates containing the compounds. The plates were incubated for about 48 hours at a 37° C., 5% CO2 incubator. Afterwards, 12 μL of 0.5 M methyl isonipecotate in dimethyl sulfoxide were added into each well and the plates were sealed and incubated at 37° C. without CO2 overnight. The plates were centrifuged for 1 min at 200×g. The resulting fluorescence was measured in a Spectramax plate reader (Molecular Devices) with a 400 nm excitation filter and a 510 nm emission filter.
# The fluorescence intensity of each well was corrected for the background observed in wells with non-IFNγ-treated cells and was expressed as a fraction of the intensity observed in wells of IFNγ-treated cells and DMSO only. Potencies were calculated by linear least squares fit to the four parameter logistic IC50 equation.
row,IC50 [nM],Structure (SMILES)
1,2500,"O=C(NC1CCC2CC1CCC2c1ccnc2ccc(F)cc12)c1ccc(Cl)cc1 (single isomer, unassigned) [Example 8, 4-Chloro-N-(6-(6-fluoroquinolin-4-yl)bicyclo[3.3.1]nonan-2-yl)benzamide]"
2,127,"O=C(Nc1ccc(Cl)cc1)C1CCC2CC1CCC2c1ccnc2ccc(F)cc12 (single isomer, unassigned) [Example 3, N-(4-chlorophenyl)-6-(6-fluoroquinolin-4-yl)bicyclo[3.3.1]nonane-2-carboxamide]"
3,260,"O=C(Nc1ccc(Cl)cc1)C1CCC2CC1CCC2c1ccnc2ccc(F)cc12 (single isomer, unassigned) [Example 2, N-(4-chlorophenyl)-6-(6-fluoroquinolin-4-yl)bicyclo[3.3.1]nonane-2-carboxamide]"
4,25,"O=C(NC1CCC2CC1CCC2c1ccnc2ccc(F)cc12)c1ccc(Cl)cc1 (single isomer, unassigned) [Example 7, 4-Chloro-N-(6-(6-fluoroquinolin-4-yl)bicyclo[3.3.1]nonan-2-yl)benzamide]"
5,770,"O=C(NC1CCC2CC1CCC2c1ccnc2ccc(F)cc12)c1ccc(Cl)cc1 (single isomer, unassigned) [Example 5, 4-Chloro-N-(6-(6-fluoroquinolin-4-yl)bicyclo[3.3.1]nonan-2-yl)benzamide]"
6,2,"O=C(Nc1ccc(Cl)cc1)C1CCC2CC1CCC2c1ccnc2ccc(F)cc12 (single isomer, unassigned) [Example 1, N-(4-chlorophenyl)-6-(6-fluoroquinolin-4-yl)bicyclo[3.3.1]nonane-2-carboxamide]"
7,1640,"O=C(NC1CCC2CC1CCC2c1ccnc2ccc(F)cc12)c1ccc(Cl)cc1 (single isomer, unassigned) [Example 6, 4-Chloro-N-(6-(6-fluoroquinolin-4-yl)bicyclo[3.3.1]nonan-2-yl)benzamide]"
8,2510,"O=C(Nc1ccc(Cl)cc1)C1CCC2CC1CCC2c1ccnc2ccc(F)cc12 (single isomer, unassigned) [Example 4, N-(4-chlorophenyl)-6-(6-fluoroquinolin-4-yl)bicyclo[3.3.1]nonane-2-carboxamide]"

# Source: patent US11267786B2, “[3.3.1] bicyclo compounds as indoleamine 2,3-dioxygenase inhibitors” (Merck Sharp & Dohme Corp., priority 2018, dated 2022)
